From the CombiSolv-Exp solvation set (Vermeire and Green 2021)

Experiment: solvent given as SMILES

CC(C)CN(CC(C)C)N=O
Details | solvation free energy, 298 K [kcal/mol]
in CC(C)CC(C)(C)C | -7.35
in O | -4.84

C1CCOC1
Details | solvation free energy, 298 K [kcal/mol]
in CC(=O)N(C)C | -3.96
in CC(C)=O | -4.12
in CC(C)CC(C)(C)C | -3.72
in CC(C)CCCC(C)CCCC(C)CCCCC(C)CCCC(C)CCCC(C)C | -3.35
in CC(C)CCl | -4.2
in CC(C)O | -4.01
in CCC(C)Cl | -4.16
in CCCCCC | -3.68
in CCCCCCC | -3.7
in CCCCCCCC | -3.66
in CCCCCCCCCCCCCCCC | -3.43
in CCCCCCCCO | -3.9
in CCCCCl | -4.19
in CCCCN(C=O)CCCC | -3.89
in CCCCOCCCC | -3.8
in CCCCl | -4.31
in CCCO | -4.02
in CCN1CCCC1=O | -3.95
in CCN(CC)C(C)=O | -3.97
in CCNC(C)=O | -3.89
in CCNC=O | -3.93
in CCO | -4.09
in CCOC(C)=O | -4.11
in CN1CCCC1=O | -4.04
in CN1CCCCC1=O | -3.92
in CNC(C)=O | -3.87
in CO | -4.43
in CS(C)=O | -3.67
in ClC(Cl)(Cl)Cl | -4.28
in ClC(Cl)Cl | -5.12
in ClCCCl | -4.53
in NC=O | -3.69
in O | -3.49
in O=CN1CCOCC1 | -3.7
in [2H]O[2H] | -3.5

O=[N+]([O-])c1c(Cl)c(Cl)cc(Cl)c1Cl
Details | solvation free energy, 298 K [kcal/mol]
in CCCCCCCCC=CCCCCCCCC(=O)OCC(COC(=O)CCCCCCCC=CCCCCCCCC)OC(=O)CCCCCCCC=CCCCCCCCC | -10.8
in O | -3.77

O=C(CCCN1CCC(O)(c2ccc(Cl)cc2)CC1)c1ccc(F)cc1
Details | solvation free energy, 298 K [kcal/mol]
in CCCCOC(C)=O | -19.5
in O | -15.4

CC(=O)OCC(C)C
Details | solvation free energy, 298 K [kcal/mol]
in CCCCCCCCCCCCCCCC | -4.32
in CCCCCCCCO | -4.71
in O | -2.41
in [2H]O[2H] | -2.47

Cc1cccc2c(C)cccc12
Details | solvation free energy, 298 K [kcal/mol]
in CCCCCCCCC=CCCCCCCCC(=O)OCC(COC(=O)CCCCCCCC=CCCCCCCCC)OC(=O)CCCCCCCC=CCCCCCCCC | -9.3
in O | -2.78

CCC(C)C(=O)OC1CC(C)C=C2C=CC(C)C(CCC3CC(O)CC(=O)O3)C21 (centres undefined)
Details | solvation free energy, 298 K [kcal/mol]
in CC(=O)OC(C)C | -24.9
in CC(=O)OCC(C)C | -24.8
in CC(C)=O | -25.7
in CCC(C)=O | -25.6
in CCC(C)OC(C)=O | -24.9
in CCCCCCCCO | -24.6
in CCCCCCO | -24.8
in CCCCCO | -24.9
in CCCCO | -25.2
in CCCCOC(C)=O | -24.9
in CCCO | -25.2
in CCCOC(C)=O | -25.1
in CCO | -25.1
in CCOC(C)=O | -25.1
in CO | -25.2
in COC(C)=O | -25.1

CCCCCC(=O)O
Details | solvation free energy, 298 K [kcal/mol]
in O | -6.11

COC(OC)(OC)C(F)(F)F
Details | solvation free energy, 298 K [kcal/mol]
in O | -0.8

Oc1ccccc1O
Details | solvation free energy, 298 K [kcal/mol]
in CCCCCC | -5.88
in CCCCCCCC | -6.04
in Cc1ccc(C)cc1 | -7.95
in Cc1cccc(C)c1 | -7.97
in Cc1ccccc1C | -8.02
in O | -9.82

CCC(C)(C)OC
Details | solvation free energy, 298 K [kcal/mol]
in CC(=O)N(C)C | -3.92
in CC(C)(C)O | -4.22
in CC(C)CC(C)(C)C | -4.24
in CCCCCC | -4.47
in CCCCCCC | -4.24
in CCCCCCCCCC | -4.16
in CCCCCCCCO | -4.07
in CCCCN(C=O)CCCC | -4.11
in CCN1CCCC1=O | -3.85
in CCN(CC)C(C)=O | -4.04
in CCNC(C)=O | -3.86
in CCNC=O | -3.79
in CN1CCCCC1=O | -3.86
in CN(C)C=O | -3.78
in CNC(C)=O | -3.75
in CNC=O | -3.62
in CO | -4.26
in O | -1.77
